Activity calls are given as the source filed them. The calls are words filed in the database; no cut-off is given here.

Data set [1] concerns Mus musculus. Nature of the data set: Anticonvulsant activity in F-1 albino mouse assessed as protection against 32 mA current-induced seizure at 100 mg/kg, ip pretreated at 0.5 hrs before current challenge by 6 Hz psychomotor seizure test. In kind it is functional, organism-based.
For data set [2], the system named is Mus musculus. As to the kind of experiment: Anticonvulsant activity in F-1 albino mouse assessed as protection against 32 mA current-induced seizure at 30 mg/kg, ip pretreated at 2 hrs before current challenge by 6 Hz psychomotor seizure test. Format: functional, organism-based.
For data set [3], the system named is Mus musculus. Nature of the data set: Anticonvulsant activity in F-1 albino mouse assessed as protection against 32 mA current-induced seizure at 100 mg/kg, ip pretreated at 2 hrs before current challenge by 6 Hz psychomotor seizure test. Format: functional, organism-based.
In data set [4] the test system is Mus musculus. As to the kind of experiment: Anticonvulsant activity in F-1 albino mouse assessed as protection against 32 mA current-induced seizure at 100 mg/kg, ip pretreated at 0.5 hrs by maximal electroshock seizure test. Format: functional, organism-based.
The subject of data set [5] is Mus musculus. As to the kind of experiment: Anticonvulsant activity in F-1 albino mouse assessed as protection against 32 mA current-induced seizure at 300 mg/kg, ip pretreated at 0.5 hrs by maximal electroshock seizure test. Format: functional, organism-based. In general terms: The maximal electroshock test induces tonic seizures with an electrical stimulus.
In data set [6] the test system is Mus musculus. Nature of the data set: Anticonvulsant activity in F-1 albino mouse assessed as protection against 32 mA current-induced seizure at 30 mg/kg, ip pretreated at 2 hrs by maximal electroshock seizure test. Format: functional, organism-based.
The subject of data set [7] is Mus musculus. As to the kind of experiment: Anticonvulsant activity in F-1 albino mouse assessed as protection against 32 mA current-induced seizure at 100 mg/kg, ip pretreated at 2 hrs by maximal electroshock seizure test. Format: functional, organism-based.
Data set [8] concerns Mus musculus. As to the kind of experiment: Anticonvulsant activity in F-1 albino mouse assessed as protection against 32 mA current-induced seizure at 300 mg/kg, ip pretreated at 2 hrs by maximal electroshock seizure test. In kind it is functional, organism-based.
Data set [9] is described as follows: Neurotoxicity in F-1 albino mouse at 30 mg/kg, ip after 0.5 hrs by rotarod test. In kind it is toxicity, organism-based. The conditions noted are these: in vivo. A general note: The rotarod test checks motor coordination on a turning rod.
Data set [10] in a line: Neurotoxicity in F-1 albino mouse at 100 mg/kg, ip after 0.5 hrs by rotarod test. Format: toxicity, organism-based. The conditions noted are these: in vivo.
The nature of data set [11]: Neurotoxicity in F-1 albino mouse at 300 mg/kg, ip after 0.5 hrs by rotarod test. Format: toxicity, organism-based. The following applies: in vivo.
The nature of data set [12]: Neurotoxicity in F-1 albino mouse at 30 mg/kg, ip after 2 hrs by rotarod test. In kind it is toxicity, organism-based. The following applies: in vivo.
Data set [13] can be described thus: Neurotoxicity in F-1 albino mouse at 100 mg/kg, ip after 2 hrs by rotarod test. The following applies: in vivo. Format: toxicity, organism-based.
A short description of data set [14]: Neurotoxicity in F-1 albino mouse at 300 mg/kg, ip after 2 hrs by rotarod test. Format: toxicity, organism-based. The conditions noted are these: in vivo.
Data set [15] deals with Mus musculus. Nature of the data set: Anticonvulsant activity in F-1 albino mouse assessed as protection against 32 mA current-induced seizure at 30 mg/kg, ip pretreated at 0.5 hrs by maximal electroshock seizure test. In kind it is functional, organism-based.
Data set [16] concerns Mus musculus. Nature of the data set: Anticonvulsant activity in ip dosed F-1 albino mouse assessed as protection against 32 mA current-induced seizure pretreated at 0.5 to 2 hrs by maximal electroshock seizure test. Format: functional. The conditions noted are these: F-1, ip.
Data set [17] concerns Mus musculus. As to the kind of experiment: Anticonvulsant activity in F-1 albino mouse assessed as protection against 32 mA current-induced seizure at 30 mg/kg, ip pretreated at 0.5 hrs before current challenge by 6 Hz psychomotor seizure test. Format: functional, organism-based.
The subject of data set [18] is Mus musculus. Nature of the data set: Anticonvulsant activity in F-1 albino mouse assessed as protection against 32 mA current-induced seizure at 300 mg/kg, ip pretreated at 0.5 hrs before current challenge by 6 Hz psychomotor seizure test. Format: functional, organism-based.
For data set [19], the system named is Mus musculus. As to the kind of experiment: Anticonvulsant activity in F-1 albino mouse assessed as protection against 32 mA current-induced seizure at 300 mg/kg, ip pretreated at 2 hrs before current challenge by 6 Hz psychomotor seizure test. In kind it is functional, organism-based.

Regarding `O=C1C=C(NCc2cccc(OC(F)(F)F)c2)CC(C(F)(F)F)C1` (configuration not stated), the result in [1], in data set [2], in data set [3], in data set [4], in data set [6] and in data set [7] was inactive. In addition, the result in data set [5] and in data set [8] was Active. The Activity result in data set [9], in [10], in [11], in data set [12], in data set [13] and in [14] was “Non-Toxic” in each case.
Take `O=C1C=C(NCc2cc(C(F)(F)F)cc(C(F)(F)F)c2)CC(C(F)(F)F)C1` (configuration not stated): the outcome in data set [3], in data set [15], in data set [4], in [5], in data set [6] and in [7] was inactive. Further, the outcome in [8] was inactive. The Activity result in data set [9], in data set [10], in data set [11], in data set [12], in data set [13] and in data set [14] was “Non-Toxic” in each case.
On to `NC(=O)N1c2ccccc2C=Cc2ccccc21` [CARBAMAZEPINE], for which the ED50 (in general, the dose that gives a 50% effect, or the effect in half of the subjects) in [16] amounted to 28.2 mg/kg.
For `COc1ccc(CNC2=CC(=O)CC(C(F)(F)F)C2)cc1` (configuration not stated), the result in data set [17], in data set [2], in data set [15], in data set [4], in [5] and in data set [6] was inactive. Besides, the outcome in [7] and in data set [8] was inactive. In addition, the Activity entry in data set [9], in [10], in data set [11], in [12], in data set [13] and in [14] was “Non-Toxic” throughout.
On to `O=C1C=C(Nc2ccc(Br)cc2C(=O)O)CC(C(F)(F)F)C1` (configuration not stated), for which the result in [17], in data set [2], in data set [3], in data set [15], in data set [4] and in data set [6] was inactive. Also, the outcome in [7] and in [8] was inactive. Besides, the Activity result in data set [9], in data set [10], in [11], in data set [12], in [13] and in [14] was “Non-Toxic” each time.
With `O=C1C=C(NCc2ccc(F)c(C(F)(F)F)c2)CC(C(F)(F)F)C1` (configuration not stated), the result in data set [18] and in data set [19] was Active. The result in data set [15], in [4], in [5], in [6], in data set [7] and in [8] was inactive. In addition, the Activity result in data set [9], in data set [10], in data set [11], in data set [12], in [13] and in [14] was “Non-Toxic” in each case. Besides, in data set [16], the ED50 was 23.5 mg/kg.
For the compound `O=C1C=C(Nc2ccc(Cl)cc2)CC(C(F)(F)F)C1` (configuration not stated), the Activity entry in data set [9] and in data set [12] was “Non-Toxic” each time. Moreover, in [16], the ED50 is 62.4 mg/kg.
Regarding `O=C1C=C(NCc2cc(F)ccc2F)CC(C(F)(F)F)C1` (configuration not stated), the result in [17], in data set [2], in data set [3], in [15], in [4] and in data set [5] was inactive. Moreover, the result in data set [6], in data set [7] and in [8] was inactive. Also, the outcome in data set [18] and in [19] was Active. Also, the Activity result in [9], in data set [10], in [11], in [12], in data set [13] and in data set [14] was “Non-Toxic” throughout.
For the compound `O=C1C=C(NCc2cccc(C(F)(F)F)c2)CC(C(F)(F)F)C1` (configuration not stated), the result in [17], in [2], in [15], in [4], in data set [6] and in data set [7] was inactive. The outcome in data set [8] was inactive. For the same compound, the Activity result in [9], in data set [10], in data set [11], in [12], in [13] and in data set [14] was “Non-Toxic” each time.
Take `O=C1C=C(NCc2ccc(Br)cc2)CC(C(F)(F)F)C1` (configuration not stated): the outcome in [2], in data set [3], in [15], in [4], in data set [6] and in data set [7] was inactive. Further, the outcome in [8] was inactive. Besides, the Activity entry in [9], in [10], in [11], in [12], in data set [13] and in [14] was “Non-Toxic” throughout.

Values taken from ChEMBL document CHEMBL4371027, “Design, synthesis and anticonvulsant evaluation of fluorinated benzyl amino enaminones” (Bioorg Med Chem, 2019).
